What was measured:
RBL cells [1] = assay: Oxygen consumption (Seahorse XF analyzer) in RBL cells; assay type: cell-based, rat; details: RBL cells, 60 μM Stattic, 20 min
Description: (§1) RBL-2H3 cells were maintained in RPMI 1640 medium as previously described1. Bone marrow was isolated from 5-6 week-old mice, and BMMC were cultured in RPMI medium supplemented with 20 ng/ml interleukin-3 (IL-3) and 20 ng/ml SCF as previously described2, 3. Cells were generally grown for a minimum of 4 weeks and used when >90% of the population expressed FcεRI. BMMC and RBL cells were sensitized first with anti-DNP IgE monoclonal antibody (SPE-7; Sigma-Aldrich Corp.) and then challenged with DNP-BSA (Sigma-Aldrich Corp.). IgE antibody was centrifuged (18,000 g, 5 min) before use to remove aggregates. […] For glycolysis elimination cells were maintained in glucose-free RPMI supplemented with 10% dialyzed fetal calf serum and 5 mM galactose.
Oxygen consumption rate (OCR) was measured using an XF24 extracellular flux analyzer (Seahorse Biosciences, North Billeric, Mass., USA).

RBL cells [2] = assay: TNF-α secretion of activated RBL cells; assay type: cell-based, rat; details: RBL cells, IgE/DNP-BSA, 60 μM Stattic 20 min
[3] = test system: STAT3 serine 727 phosphorylation; assay: Western blot of STAT3 serine 727 phosphorylation in activated RBL cells; assay type: cell-based, rat; details: RBL cells, 60 μM Stattic 20 min, immunologically activated 5 min
Description: RBL cells were washed once in cold PBS prior to homogenization. 9×10^6 cells were homogenized in buffer A (320 mm sucrose, 5 mm Tris, 2 mm EGTA, pH 7.4) with 10 strokes of a Teflon Dounce homogenizer. The procedure was performed at 4° C. The homogenate was centrifuged for 3 min at 2000 g and the supernatant kept. This was repeated twice, and the supernatants combined then centrifuged for 3 min at 2000 g. to remove the nuclei and cell debris. The supernatant was transferred to a clean tube and centrifuged for 10 min at 12,000 g to pellet mitochondria, washed twice resuspended in a small volume of buffer A and stored at −70° C. In order to prepare mitoplasts, the mitochondrial pellet was resuspended in buffer A with the addition of 0.02% (w/v) digitonin. The pellet was resuspended and washed twice in large volumes of digitonin-free buffer A. […] Cells and mitochondria were vortexed and incubated on ice for 15 min. The lysates were then centrifuged at 14,000 g for 15 min and pellets were discarded. The protein concentration of each sample was determined using Bradford Reagent (Sigma-Aldrich). Proteins were resolved by 10-15% SDS-PAGE under reducing conditions and transferred to polyvinylidene difluoride membranes (Millipore Billerica, Ma). […] The membranes were washed three times with TBST for 5 mM before and after each incubation with secondary Ab. The proteins were detected with the appropriate secondary Ab (1 h; room temperature) coupled to HRP-conjugated goat anti-rabbit or anti-mouse Ab and visualized by chemiluminescence according to the manufacturer's instructions (Pierce).

BMMC [4] = assay: ATP determination (ATPLite luminescence) in BMMC; assay type: cell-based, mouse; details: 60 μM Stattic, 20 min
Description: as §1
ATP levels were measured using the ATPLite luminescence-based assay according to the manufacturer's instructions (Perkin Elmer, Waltham, Mass., USA).

CBMC = assay: β-Hexosaminidase release assay (degranulation) in human cord blood-derived mast cells; assay type: cell-based; details: 60 μM Stattic 5 min before α-human-IgE, control cells 20.9±4.9
BMMC [5] = assay: Measurements of secreted mediators (ELISA) in activated BMMC; assay type: cell-based, mouse; details: immunologically activated BMMC, 60 μM Stattic 20 min
Description: 1×106 BMMC were immunologically activated as described above. After IgE incubation, the cells were washed three times in PBS and incubated with DNP-albumin (Sigma-Aldrich) for 30 mM in complete growth medium. Supernatant was collected and Granzyme B and TNFα content were measured using ELISA Kits (eBioscience).

[6] = test system: succinate dehydrogenase (SDH, complex 2); assay: ETC complex activity analysis in treated RBL cells: complex 2; assay type: cell-based, rat; details: 60 μM Stattic, 30 min
Description: The enzymatic activities of respiratory chain complexes were measured at 37° C. by standard spectrophotometric methods as previously described5, 6. Briefly, complex II was measured as succinate dehydrogenase (SDH) based on the succinate-mediated phenazine methosulfate reduction of dichloroindophenol at 600 nm Complex 2+3 were measured as succinate cytochrome c reductase and after the reduction of oxidized cytochrome c at 550 nm. Complex 4 (cytochrome c oxidase) was measured by following the oxidation of reduced cytochrome c at 550 nm.
Citrate synthase (CS), an ubiquitous mitochondrial matrix enzyme, serving as a control, was measured in the presence of acetylCoA and oxaloacetate by monitoring the liberation of CoASH coupled to 5′,5′-dithiobis(2-nitrobenzoic) acid at 412 nm. Activities are presented as a ratio to CS. Protein concentration was determined by the Lowry method and calculated according to a bovine serum albumin (BSA) standard curve.

`O=[N+]([O-])c1ccc2c(c1)S(=O)(=O)C=C2` [Stattic, 6-Nitrobenzo[b]thiophene 1,1-dioxide, reference compound] was tested, and the “reduction in oxygen consumption” value (RBL cells [1]) was 18.6±8.3%, the TNF-α secretion (RBL cells [2]) was “completely abolished” and the “phosphorylation levels of STAT3 serine 727 in total cell lysate” value [3] was “significant reduction”. For the same compound, the “reduction in ATP levels” value (BMMC [4]) was 76.4±9.3%, the “degranulation (β-hexosaminidase release)” value (CBMC) was 3.5±1.9 and the “Granzyme B secretion” value (BMMC [5]) was “greatly reduced”. The “change in succinate dehydrogenase (SDH, complex 2) activity” value [6] was “No significant change”.

Reference: US20160113900A1, “INHIBITORS OF MITOCHONDRIAL STAT3 AND USES THEREOF IN MODULATION OF MAST CELL EXOCYTOSIS” (Yissum Research Development Company of the Hebrew …, priority 2014, published 2016)
